Data on 29 molecules can be found in ChEMBL document CHEMBL1142357, “Synthesis and biological evaluation of 1-methyl-2-(3',4',5'-trimethoxybenzoyl)-3-aminoindoles as a new class of antimitotic agents and tubulin inhibitors” (J Med Chem, 2008).

pIC50: −log10 of the molar value. A value given as a limit tells only on which side of the number the result lay.

A word on the pIC50: it is −log10 of the IC50, conventionally taken in molar units. Read a low pIC50 as a large IC50. Broadly, the AC50 is the concentration at which the activity in the assay is half-maximal. The term inhibition denotes the drop in the measured response relative to a control, in per cent. Higher therefore signals strong suppression.

Test [1] concerns FM3A. The test is described as follows: Antiproliferative activity against mouse FM3A cells. It counts as functional, cell-based.
Test [2] can be described thus: Antiproliferative activity against human Molt4/C8 cells. It counts as functional, cell-based. The note with it: MOLT-4.
In test [3] the test system is CCRF-CEM. As to the kind of experiment: Antiproliferative activity against human CEM cells. Type of test: functional, cell-based.
The test system of test [4] is L1210. The test is described as follows: Antiproliferative activity against mouse L1210 cells. Type of test: functional, cell-based.
Test [5] can be described thus: Inhibition of bovine tubulin polymerization after 20 mins. Details: species or system Bos taurus.
In test [6] the test system is K562. As to the kind of experiment: Cell cycle arrest in human K562 cells by accumulation at G0/G1 phase at 3 uM after 24 hrs by flow cytometry. Type of test: functional. (In general: A flow cytometer gives signals particle by particle.)
Test [7] relates to K562. As to the kind of experiment: Induction of apoptosis in human K562 cells after 48 hrs by fluorescence microscopy. Type of test: functional, cell-based. The settings on record: K562, 48 h.
Test [8] has as its system K562. The test is described as follows: Cell cycle arrest in human K562 cells by accumulation at G2/M phase at 3 uM after 24 hrs by flow cytometry. Type of test: functional.
Test [9] deals with K562. The test is described as follows: Cell cycle arrest in human K562 cells by accumulation at S phase at 3 uM after 24 hrs by flow cytometry. Type of test: functional.
The subject of test [10] is K562. The test is described as follows: Cell cycle arrest in human K562 cells by accumulation at sub G0-G1 phase at 3 uM after 24 hrs by flow cytometry. It counts as functional.
The species entered for test [11] is Bos taurus. The test is described as follows: Displacement of [3H]colchicine from bovine tubulin at 5 uM.
Test [12] relates to K562. As to the kind of experiment: Cell cycle arrest in human K562 cells by accumulation at A phase at 30 nM after 24 hrs by flow cytometry. It counts as functional.
Test [13] relates to K562. As to the kind of experiment: Cell cycle arrest in human K562 cells by accumulation at G2/M phase at 30 nM after 24 hrs by flow cytometry. It counts as functional.
The subject of test [14] is K562. As to the kind of experiment: Induction of apoptosis in human K562 cells at 60 nM after 48 hrs by fluorescence microscopy. It counts as functional.
Test [15] concerns K562. As to the kind of experiment: Cell cycle arrest in human K562 cells by accumulation at G0/G1 phase at 30 nM after 24 hrs by flow cytometry. It counts as functional.
Test [16] concerns K562. The test is described as follows: Cell cycle arrest in human K562 cells by accumulation at S phase at 30 nM after 24 hrs by flow cytometry. Type of test: functional.
Test [17] concerns K562. As to the kind of experiment: Cell cycle arrest in human K562 cells by accumulation at S phase at 200 nM after 24 hrs by flow cytometry. Type of test: functional.
The subject of test [18] is K562. The test is described as follows: Cell cycle arrest in human K562 cells by accumulation at G2/M phase at 200 nM after 24 hrs by flow cytometry. Type of test: functional.
The subject of test [19] is K562. As to the kind of experiment: Cell cycle arrest in human K562 cells by accumulation at A phase at 200 nM after 24 hrs by flow cytometry. Type of test: functional.
Test [20] has as its system K562. The test is described as follows: Cell cycle arrest in human K562 cells by accumulation at G0/G1 phase at 200 nM after 24 hrs by flow cytometry. Type of test: functional.

On to `CCn1c(C(=O)c2cc(OC)c(OC)c(OC)c2)c(N)c2ccc(OC)cc21`, for which the pIC50 in [1], in test [2], in [3] and in test [4] was < 5.00 throughout.
As to `COc1cc(C(=O)c2[nH]c3ccc(Cl)cc3c2N)cc(OC)c1OC`, the pIC50 in test [1], in test [2], in test [3] and in [4] was < 5.00 throughout.
As to `COc1ccc2[nH]c(C(=O)c3cc(OC)c(OC)c(OC)c3)c(N)c2c1`, the pIC50 was 5.00 in [1], 5.16 in [2], 5.07 in test [3] and 5.01 in test [4].
Turning to `COc1cc2[nH]c(C(=O)c3cc(OC)c(OC)c(OC)c3)c(N)c2cc1OC`, the pIC50 in test [1] was < 5.00; in test [2], 5.07; in [3] it was 5.02; in [4], < 5.00.
In the case of `COc1cc(C(=O)c2c(N)c3c(OC)cccc3n2C)cc(OC)c1OC`, the pIC50 in test [1], in [2], in test [3] and in test [4] was < 5.00 each time.
As to `COc1ccc(/C=C\c2cc(OC)c(OC)c(OC)c2)cc1O` [COMBRETASTATIN A4], the negative-log IC50 (pIC50) in test [2] is 8.80.
In the case of `COc1cc(C(=O)c2[nH]c3cccc(C)c3c2N)cc(OC)c1OC`, the pIC50 in [1], in test [2], in test [3] and in test [4] was < 5.00 throughout.
In the case of `COc1ccc2c(c1)c(N)c(C(=O)c1cc(OC)c(OC)c(OC)c1)n2C`, the pIC50 in test [1] is 5.28; in test [2], 5.68; in test [3], 5.41; in test [5], 4.82; in [4] it was 5.38.
Regarding `CCn1c(C(=O)c2cc(OC)c(OC)c(OC)c2)c(N)c2cccc(OC)c21`, the negative logarithm of the IC50 (pIC50) in test [1] was < 5.00; in [2], 5.04; in [3], < 5.00; in [4], < 5.00.
Turning to `COc1ccc2c(N)c(C(=O)c3cc(OC)c(OC)c(OC)c3)[nH]c2c1`, the Activity in [6] is 15%; in test [8], 50%; in [9], 35%; in test [10], 25%. In addition, half-maximal activity in test [7] (AC50) was put at 3 µM. The pIC50 in test [1] was 5.80; in test [2], 6.20; in test [3], 6.49; in test [5], < 4.40; in test [4], 6.01.
On to `COc1cc(C(=O)c2sc3c(OC)cccc3c2N)cc(OC)c1OC`, for which the pIC50 in test [1] is 7.57; in [2], 8.07; in [3], 8.05; in [5], 5.68; in [4], 7.48. This molecule yielded an inhibition in [11] of 39%.
`COc1cc2c(N)c(C(=O)c3cc(OC)c(OC)c(OC)c3)n(C)c2cc1OC`: the negative logarithm of the IC50 (pIC50) in [1] was 5.30; in test [2], 5.30; in test [3], 5.30; in [5], 4.74; in [4], 5.27.
Consider `COc1cc(C(=O)c2c(N)c3ccc(C)cc3n2C)cc(OC)c1OC`, for which the pIC50 in test [1] is 5.82; in [2], 6.96; in test [3] it was 6.40; in test [5], 5.19; in [4] it was 5.72.
Take `COc1cc(C(=O)c2c(N)c3c(C)cccc3n2C)cc(OC)c1OC`: the pIC50 in test [1], in [2], in test [3] and in test [4] was < 5.00 in each case.
Turning to `COc1cc(C(=O)c2c(N)c3ccccc3n2C)cc(OC)c1OC`, the pIC50 was < 5.00 in test [1], 5.68 in test [2], 5.17 in test [3] and 5.09 in test [4].
As to `COc1cc(C(=O)c2c(N)c3ccc(Cl)cc3n2C)cc(OC)c1OC`, the negative-log IC50 (pIC50) in [1] was 6.01; in [2], 6.32; in [3], 6.00; in test [5], 5.15; in [4], 5.96.
With `COc1cc(C(=O)c2c(N)c3cccc(OC)c3n2C)cc(OC)c1OC`, the Activity came out at 24% in test [12]; 45% in test [13]; 100% in test [14]; 27% in test [15]; 28% in test [16]. Further, the AC50 in [7] is 0.03 µM. For the same molecule, the pIC50 in test [1] was 7.82; in test [2] it was 8.42; in test [3] it was 8.06; in test [5], 5.85; in test [4] it was 7.82. This molecule returned an inhibition in [11] of 76%.
On to `COc1cc(C(=O)c2c(N)c3cc(C)ccc3n2C)cc(OC)c1OC`, for which the pIC50 was 5.80 in test [1]; 5.77 in test [2]; 5.77 in test [3]; 5.00 in test [5]; 5.72 in test [4].
Turning to `COc1cc(C(=O)c2[nH]c3cccc(OC)c3c2N)cc(OC)c1OC`, the pIC50 in test [1], in test [2], in test [3] and in test [4] was < 5.00 in each case.
With `COc1ccc2c(N)c(C(=O)c3cc(OC)c(OC)c(OC)c3)n(C)c2c1`, the Activity in test [17] came to 33%; in [18], 52%; in test [19], 23%; in test [20], 15%. Moreover, the AC50 in [7] worked out at 0.15 µM. The pIC50 in test [1] was 7.01; in test [2] it was 7.24; in [3], 7.15; in test [5], 5.34; in test [4], 7.16. For the same molecule, in [11], the inhibition is 38%.
Take `COc1ccc2c(C(=O)c3cc(OC)c(OC)c(OC)c3)c[nH]c2c1`: the pIC50 was 8.43 in [1]; 8.47 in test [2]; 8.44 in test [3]; 5.54 in [5]; 8.46 in [4]. Besides, the inhibition in test [11] came out at 84%.
For the molecule `COc1cc(C(=O)c2[nH]c3cc(Cl)ccc3c2N)cc(OC)c1OC`, the pIC50 is < 5.00 in [1], 5.04 in test [2], < 5.00 in test [3] and < 5.00 in test [4].
As to `COc1cc(C(=O)c2[nH]c3c(OC)cccc3c2N)cc(OC)c1OC`, the pIC50 in test [1] was < 5.00; in [2] it was 6.19; in [3], 6.20; in test [4], < 5.00.
Take `COc1cc(C(=O)c2[nH]c3c(C)cccc3c2N)cc(OC)c1OC`: the pIC50 in [1], in [2], in [3] and in [4] was < 5.00 in each case.
Regarding `COc1cc(C(=O)c2[nH]c3ccc(C)cc3c2N)cc(OC)c1OC`, the pIC50 in [1], in [2], in test [3] and in [4] was < 5.00 each time.
For `COc1cc(C(=O)c2[nH]c3cc(C)ccc3c2N)cc(OC)c1OC`, the negative logarithm of the IC50 (pIC50) in test [1] is < 5.00; in test [2] it was 5.85; in test [3], 5.59; in test [4] it was 5.46.
Regarding `COc1cc(C(=O)c2c(N)c3cccc(C)c3n2C)cc(OC)c1OC`, the pIC50 in test [1] was 5.85; in [2], 6.57; in test [3] it was 5.92; in test [5], 5.08; in [4] it was 5.74.
Consider `CCn1c(C(=O)c2cc(OC)c(OC)c(OC)c2)c(N)c2ccccc21`, for which the pIC50 in [1], in test [2], in test [3] and in [4] was < 5.00 in each case.
`COc1cc(C(=O)c2[nH]c3ccccc3c2N)cc(OC)c1OC`: the pIC50 in test [1], in test [2], in test [3] and in [4] was < 5.00 in each case.
